Results: patent publication US11850237B2, “Compounds and methods for treating influenza” (priority 2009, dated 2023)
Values after ≈ are worked out from the molar mass of the structure shown. Like-named read-outs stand apart in the source and are kept apart here.

Assays:
[1] = system: influenza A virus (PR8 in U937 and Jurkat, WSN in A549 cells); assay: Influenza A virus replication in human cells (U937, Jurkat, A549); format: cell-based; conditions: monocytic U937, T-lymphocytic Jurkat and alveolar type II-like A549 cells, read-out: EC50, inhibition of influenza A virus replication in human cells
PR8 virus = format: cell-based, influenza A virus
[2] = system: H3N2 A/Firenze/7/03 (A/FI); format: cell-based, influenza A virus; conditions: MDCK cells, 10 μg/ml TIZ
[3] = system: influenza B virus, B/Parma/3/04; format: cell-based; conditions: B/Parma/3/04 influenza B, MDCK cells, 10 μg/ml TIZ
[4] = system: H5N9 low-pathogenicity avian strain A/Ck/It/9097/97 (A/Ck); assay: microbe, parasite or virus in culture; format: cell-based; conditions: Influenza A virus, H5N9, MDCK, 24 h, read-out: EC50, inhibition of virus replication
H1N1 A/PR/8/34 (PR8) = assay: microbe, parasite or virus in culture; format: cell-based, influenza A virus; conditions: for EC50 / EC90: Influenza A virus; for EC90: read-out: Virus Yield EC90; for antiviral activity against PR8, overall rating: PR8 influenza A virus, Table 1
[5] = target: viral hemagglutinin (HA0) (Influenza A virus, UniProt P03452); format: cell-based
[6] = system: viral hemagglutinin (HA0); format: cell-based, influenza A virus; conditions: for HA0 maturation in other host cells and strains: WSN in A549 cells, A/Ck and PR8 in MDCK cells
MDCK cells [7] = assay: Host protein synthesis, eIF2α phosphorylation and Grp78/BiP in MDCK cells; format: cell-based, canine
Experimental: Metabolic labeling, analysis of protein synthesis and Western Blot Mock-infected or influenza virus-infected cells were labeled with 10 μCi/ml of [35S]-methionine-cysteine ([35S]-Met/Cys, Redivue Pro-Mix 35S in vitro cell-labeling mix; GE Healthcare) for the indicated times after 30 min. starvation in methionine/cysteine-free medium. For pulse/chase experiments, cells were labeled [35S]-Met/Cys (100 μCi/ml) for 15 min., after 30 min. starvation in methionine/cysteine-free medium. At the end of pulse, cells were chased in complete medium containing 10 mM cold methionine and 1 mM cycloheximide for different times in the absence or presence of TIZ. The pulse/chase were terminated by placing the cells on ice. After cell lysis in RIPA buffer (150 mM NaCl, 10 mM Tris-HCl pH 7.5, 4 mM EDTA, 1% Triton X-100, 600 mM KCl), containing 1 mM phenylmethylsulphonyl fluoride (PMSF) and a protease inhibitor cocktail (PIC; Roche Diagnostics GmbH), samples containing the same amount of radioactivity were separated by SDS/PAGE (3% stacking gel, 10% resolving gel) and processed for autoradiography, as described. Autoradiographic patterns were visualized and quantified in Typhoon-8600 Imager (Molecular Dynamics, Amersham Pharmacia Biotech) and images were acquired using ImageQuant software (Amersham Pharmacia Biotech) (MDP analysis).
For Western blot analysis, cells were lysed with cold high-salt extraction (HSB) buffer containing 2 mM dithiothreitol (DTT), 1 mM PMSF, 1 mM orthovanadate, 20 mM β-glycerophosphate, 1 mM p-nitrophenyl phosphate (pNPP) and PIC, or with RIPA buffer, containing 1 mM PMSF and PIC. […] Quantitative evaluation of proteins was determined by Versadoc-1000 analysis using the Quantity One software program, available through BIO-RAD Laboratories.

A/WSN/33 (WSN) = assay: microbe, parasite or virus in culture; format: cell-based; conditions: Influenza A virus, MDCK, 24 h, read-out: EC50, inhibition of virus replication
[8] = system: human low-density lipoprotein receptor (LDLR); assay: Plasma membrane targeting of LDLR in transfected MDCK cells; format: cell-based; conditions: LDLR-A18-GFP transfected MDCK cells, TIZ 10 μg/ml for 16 h
Text: For transfection experiments, MDCK cells plated in LabTekII coverglass chambers (Nunch-Thermo Fisher Scientific Inc.) were transiently transfected with green fluorescent protein (GFP)-tagged internalization-defective human low-density lipoprotein receptor (hLDLR) mutant (LDLR-A18-GFP plasmid, kindly provided by E. Rodriguez-Boulan, Cornell University New York, NY), using Lipofectamine 2000 (Invitrogen) according to the manufacturer's instructions.
For detection of plasma membrane targeting of human low-density lipoprotein receptor (hLDLR), MDCK cells plated in coverglass chambers were transiently transfected with GFPtagged internalization-defective hLDLR mutant (LDLR-A18-GFP plasmid) and, after 8 h, treated with TIZ (10 μg/ml) or vehicle for the following 16 h. After blocking protein synthesis with 100 μg/ml cycloheximide (Sigma-Aldrich) for 1 h, plasma membranes were stained using CellMask™ Orange plasma membrane stain (Molecular Probes, Invitrogen). After staining, cells were examined using a Leica DM-IL fluorescence microscope equipped with UV excitation filters. The images were captured with a Leica DC-300 camera using Leica Image-Manager500 software.

[9] = Toxicity / cell viability by MTT in uninfected MDCK cells; format: cell-based, canine; conditions: dog, uninfected MDCK cells; uninfected cells
Experimental: (§1) Cell culture, treatment and transfection-Madin-Darby canine kidney (MDCK) cells, and human A549 alveolar type II-like epithelial, Jurkat Tlymphoblastoid and U397 monocytic leukemia cells were grown at 37° C. in a 5% CO2 atmosphere in RPMI 1640 (Invitrogen), supplemented with 10% fetal calf serum (FCS), 2 mM glutamine and antibiotics. Test compounds were added immediately after 1-hour adsorption period, and kept in the culture medium for the entire time of the experiment, unless differently specified. […] Cell viability was determined by the 3-(4,5-dimethylthiazol-2-yl)-2,5-diphenyltetrazolium bromide (MTT) to MTT formazan conversion assay (Sigma-Aldrich) as described previously. Microscopical examination of mock-infected or virus-infected cells was performed using a Leica DM-IL microscope and images were captured on a Leica DC 300 camera using Leica Image-Manager500 software.

MDCK cells [10] = assay: as above; format: cell-based, canine; conditions: MDCK cells, MTT
Experimental: as §1

[11] = system: H1N1 A/PR/8/34 (PR8) virus; assay: microbe, parasite or virus in culture; format: cell-based, influenza A virus; conditions: for EC50: Influenza A virus, MDCK, 24 h; for PR8 Yield: no zanamivir (Control)
Coronavirus = assay: Activity against other respiratory viruses: Coronavirus; format: cell-based
[12] = Double-blind placebo controlled trials in influenza-like illness; format: in vivo, human
Experimental: Evaluation of the effect of twice daily nitazoxanide for 5 days on the duration of symptoms in pediatric patients and adults with influenza-like illnesses was conducted. Two double-blind placebo controlled trials were conducted. Children 12 months-11 years of age were given NTZ suspension (n=100, 50 per group) and Patients ≥12 years of age were given NTZ 500 mg tablets (n=86, 43 per group). Single center trials were conducted. Studies were based on TAMIFLU® trials. The trials followed specific Inclusion/exclusion criteria. Inclusion required children age 1-11 years of patients ≥12 years of age with a fever >100° F. with ≥1 respiratory symptom (including cough, nasal discharge, sneezing, sore throat, etc.) and/or with ≥1 constitutional symptom (myalgia, malaise, fatigue, headache, chills/sweat, etc.). Major exclusions included symptom duration ≥72 hours, pregnancy or breastfeeding, concurrent antibiotics/antiviral medication, or a history of asthma or other pulmonary disease.
Patients were randomized to receive NTZ or placebo b.i.d. for 5 days. Nasopharyngeal swab collected at baseline for rapid direct immunofluorescence assay (SimulFluor respiratory Screen) for 7 viruses (RSV, Influenza A & B, Parainfluenza 1-3, and Adenovirus). Symptoms recorded in a daily diary by the patient (or parent) with each symptom graded on a scale of 0 to 3: absent, mild, moderate, severe. Tissue was stored in a ziplock plastic bag and collected daily by study personnel for weighing. A follow up physical examination was conducted on day 7. The primary endpoint was the time from baseline to each symptom returning to absent or mild (<2). Secondary endpoints include antibiotic use, day 7 respiratory symptoms, daily tissue/mucus weight.

influenza = assay: Clinical trials, treatment of influenza; format: in vivo, human; conditions: orally 300 mg or 600 mg twice daily for 5 days
Experimental: Low dose administration of thiazolides such as NTZ to treat virus infection. NTZ can be administered orally at a dose of 300 mg or 600 mg twice daily for 5 days as a treatment of influenza. […] Preferably, the dosage of nitazoxanide is 300 mg twice daily for 5 days, which is less than the dosage of NTZ needed to treat intestinal infections, thereby enabling a reduction of side effects associated with higher dosages. Thiazolides can also be administered as a modified release bi-layer tablet. As such, thiazolides can be administered in 100 mg, 200 mg, 300 mg, 400 mg, 500 mg or 600 mg doses twice daily for 5 days to treat virus infection.

[13] = system: Respiratory syncytial virus; assay: Activity against other respiratory viruses: Respiratory syncytial virus; format: cell-based; conditions: human respiratory syncytial virus
Rhinovirus = assay: Activity against other respiratory viruses: Rhinovirus; format: cell-based, human rhinovirus; conditions: Enterovirus
Parainfluenza = assay: Activity against other respiratory viruses: Parainfluenza; format: cell-based
Adenovirus = assay: Activity against other respiratory viruses: Adenovirus; format: cell-based; conditions: unidentified adenovirus
[14] = Cytotoxicity (CC50) in the other respiratory virus assays
[15] = system: H1N1 A/PR/8/34 (PR8) virus; assay: microbe, parasite or virus in culture; format: cell-based, influenza A virus; conditions: Influenza A virus, MDCK, 24 h
[16] = MDCK, 24 h, read-out: EC50, inhibition of virus replication
[17] = PR8, MDCK cells, read-out: Virus Yield EC50

Chain of viral hemagglutinin (HA0) (Influenza A virus, UniProt P03452) (P03452 18-565 limits assumed): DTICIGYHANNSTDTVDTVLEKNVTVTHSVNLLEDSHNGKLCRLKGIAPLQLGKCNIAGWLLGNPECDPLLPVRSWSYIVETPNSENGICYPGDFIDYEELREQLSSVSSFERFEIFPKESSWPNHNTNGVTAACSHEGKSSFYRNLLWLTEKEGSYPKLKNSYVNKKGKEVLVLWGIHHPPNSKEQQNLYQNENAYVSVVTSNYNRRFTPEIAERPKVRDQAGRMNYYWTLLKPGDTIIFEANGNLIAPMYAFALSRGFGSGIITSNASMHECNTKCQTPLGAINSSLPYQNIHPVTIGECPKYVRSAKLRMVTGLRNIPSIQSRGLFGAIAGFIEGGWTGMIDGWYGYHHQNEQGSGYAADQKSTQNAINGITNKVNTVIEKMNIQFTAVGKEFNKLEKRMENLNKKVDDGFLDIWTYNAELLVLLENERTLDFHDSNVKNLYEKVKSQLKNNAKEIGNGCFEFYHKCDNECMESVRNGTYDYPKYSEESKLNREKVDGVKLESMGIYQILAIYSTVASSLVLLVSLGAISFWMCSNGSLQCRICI

O=C(Nc1ncc([N+](=O)[O-])s1)c1ccccc1O [Compound 2, tizoxanide]
EC50 [1]: 0.3 µg/mL (≈ 1.13 µM)
effect on influenza virus replication (PR8 virus): had no effect
time after infection for which a single administration inhibits virus replication (PR8 virus; single administration after virus adsorption, 10 μg/ml, PR8, MDCK cells): at least 48 h
effect on virus replication (PR8 virus; treatment of cells only during the adsorption period): did not inhibit virus replication
inhibition of virus replication [2]: very effective
inhibition of virus replication [3]: very effective
EC50 [4]: 0.5 µg/mL (≈ 1.89 µM)
effect on virus replication under multi- and single-step virus growth (H1N1 A/PR/8/34 (PR8); H1N1 PR8, MDCK cells, 10 μg/ml TIZ, m.o.i. 10 or 0.001 ffu/cell): dramatic block
EC50 (H1N1 A/PR/8/34 (PR8); [16]): 1 µg/mL
EC50 (H1N1 A/PR/8/34 (PR8); [17]): 1 µg/mL
EC90 (H1N1 A/PR/8/34 (PR8); PR8, MDCK cells): 9 µg/mL (≈ 33.9 µM)
antiviral activity against PR8, overall rating (H1N1 A/PR/8/34 (PR8)): potent and selective
Endo-H sensitivity of HA0 [5]: remained sensitive to digestion
HA0 glycosylation (glucosamine, mannose incorporation) [5]: did not decrease glucosamine and actually increased mannose incorporation
HA0 trimer formation [5]: did not prevent HA0 ability to form trimers
change in influenza virus protein synthesis pattern (HA0 band) [5]: disappearance of a band of approximately 79 kDa
intracellular HA0 levels / accumulation [5]: did not reduce intracellular HA0 levels
plasma membrane levels of viral hemagglutinin [5]: dramatically decreased
viral proteins in purified virions from supernatant ([6]; PR8-infected cells, 24 h p.i.): could not be detected
HA0 maturation in other host cells and strains [6]: able to inhibit HA0 maturation
expression of Grp78/BiP (unfolded protein response marker) (MDCK cells [7]; MDCK cells): did not induce the expression
host protein synthesis (MDCK cells [7]; [35S]-Met/Cys incorporation, 10 μg/ml TIZ): did not inhibit host protein synthesis
phosphorylation of eukaryotic initiation factor 2α (eIF2-α) (MDCK cells [7]; uninfected or PR8-infected cells): did not affect phosphorylation
EC50 (A/WSN/33 (WSN)): 0.5 µg/mL (≈ 1.89 µM)
plasma membrane targeting of LDLR [8]: did not inhibit plasma membrane targeting of LDLR
CC50 [9]: > 50 µg/mL
Toxicity LD50 (MTT) (MDCK cells [10]): >50 µg/mL

CC(=O)Oc1ccccc1C(=O)Nc1ncc([N+](=O)[O-])s1 [Compound 1, nitazoxanide]
EC50 ([11]; read-out: EC50 of NTZ in the experiments with zanamivir): 0.66 µg/mL
EC50 ([11]; read-out: EC50 of NTZ in the experiments with zanamivir (molar equivalent)): ~2.2 µM
PR8 Yield ([11]; Nitazoxanide 0.1 μg/ml): 48 HAU/ml
PR8 Yield ([11]; Nitazoxanide 1 μg/ml): 16 HAU/ml
EC50 (Coronavirus): 1 µg/mL (≈ 3.25 µM)
respiratory symptoms, Day 7 Physical Exam ([12]; influenza-like illness, FIG. 13): reduces respiratory symptoms
resolution of symptoms associated with influenza-like illness ([12]; subjects not positive for Adenovirus, RSV, Influenza A, Parainfluenza 1, FIG. 12): can resolve symptoms
treatment of patients with influenza like illness ([12]; twice daily for 5 days vs placebo, patients mostly negative for Adenovirus, RSV, Influenza A, Parainfluenza 1): has the ability to treat patients
treatment of influenza in clinical trials (influenza): has the ability to treat influenza
EC50 [4]: 1 µg/mL (≈ 3.25 µM)
EC50 (H1N1 A/PR/8/34 (PR8); [16]): 1 µg/mL
EC50 (H1N1 A/PR/8/34 (PR8); MDCK, PR8 virus, separate studies, read-out: EC50 (molar equivalent)): 3.3 µM
EC50 (H1N1 A/PR/8/34 (PR8); [17]): 1 µg/mL
EC90 (H1N1 A/PR/8/34 (PR8); PR8, MDCK cells): 7 µg/mL (≈ 22.8 µM)
antiviral activity against PR8, overall rating (H1N1 A/PR/8/34 (PR8)): potent and selective
HA0 maturation in other host cells and strains [6]: caused similar alterations
EC50 [13]: 0.5 µg/mL (≈ 1.63 µM)
EC50 (A/WSN/33 (WSN)): 0.5 µg/mL (≈ 1.63 µM)
EC50 (Rhinovirus): > 10 µg/mL
EC50 (Parainfluenza): 0.5 µg/mL (≈ 1.63 µM)
EC50 (Adenovirus): 0.2 µg/mL (≈ 0.651 µM)
CC50 [14]: > 50 µg/mL
CC50 ([14]; Adenovirus line of Table 3): >50 µg/mL
CC50 ([14]; Coronavirus line of Table 3): >50 µg/mL
CC50 ([14]; Respiratory syncytial virus line of Table 3): >50 µg/mL
CC50 ([14]; Rhinovirus line of Table 3): >50 µg/mL
EC50 ([15]; read-out: EC50 of NTZ in the experiments with oseltamivir): 1 µg/mL
EC50 ([15]; read-out: EC50 of NTZ in the experiments with oseltamivir (molar equivalent)): 3.3 µM
CC50 [9]: > 50 µg/mL
Toxicity LD50 (MTT) (MDCK cells [10]): >50 µg/mL
